{"source": "patent US11571480B2", "about": "“Multi-ligand drug conjugates and uses thereof” (priority 2015, dated 2023)", "key": {"melanoma cell line A375": {"test_system": "melanoma cell line A375", "test": "Cytotoxicity test of conjugate LDC1013", "type": "cell-based", "experimental": "(§1) Culture medium: RPMI 1640 Medium, no folic acid\n1) human nasopharyngeal cancer cell line KB, melanoma cell line A375, and human lung cancer cell H460 were incubated at 37° C., 5% CO2 in RPMI 1640 medium containing 10% fetal bovine serum, the cells were passaged every 2-3 days.\n2) human nasopharyngeal cancer cell line KB, melanoma cell line A375, and human lung cancer cell H460 were plated at 1×10^3 cells per well (96-well plate) and incubated for 8-12 h at 37° C., 5% CO2.\n(§2) 3) Stock solutions of LDC conjugates or control were prepared in PBS solution. 100 μL/well of serially diluted LDC conjugates or control was added to the cells in the plate and incubated for 15-30 min at 37° C., 5% CO2. The culture medium in the wells was then removed by aspiration and the cells were incubated in fresh culture medium without conjugates (150 μL/well) for 2-3 days at 37° C., 5% CO2.\n(§3) 4) CellTiter 96® Aqueous One Solution Cell Proliferation Assay (Promega) was added to each well to measure the amount of […] cells, and the plate was incubated in an incubator for 1 h at 37° C., 5% CO2.\n(§4) 5) the plate was read at 490 nm on a microplate reader, and the cell survivals were compared for cells with or without the treatment of LDC conjugates. The LDC drug concentrations that are required for 50% cell death (IC50 values) were determined."}, "[1]": {"test_system": "Transplanted HCC1954 tumor", "test": "Inhibitory assay of conjugate LDC1013 against xenograf tumors", "type": "in vivo, nude mice", "details": "for Body weight of mice / Tumor size: HCC1954 tumor", "experimental": "(§5) Animal: nude mice, aged 6-8 weeks, female\n1) Human breast cancer cells HCC1954 were incubated at 37° C., 5% CO2 in IMDM medium containing 10% fetal bovine serum, the cells were passaged every 2-3 days.\n2) generation of tumors: 7×10^6 tumor cells were injected subcutaneously into the back of nude mice, and the mice were grouped for treatment after the tumor sizes were as large as about 180-320 mm^3. […]\n(§6) 4) the physical performance, body weights and tumor sizes of the animals were monitored. The number of animal death was recorded during the experiment."}, "[2]": {"test_system": "human nasopharyngeal cancer cell line KB", "test": "Cytotoxicity test of conjugate LDC13B", "type": "cell-based", "experimental": "as §1\n1) human nasopharyngeal cancer cell line KB, human colon carcinoma HCT-116, human prostatic cancer cell PC-3, human gastric cancer cell line GTL-16, human endometrial cancer cell HEC-1A, and human gastric cancer cell N87 were incubated at 37° C., 5% CO2 in RPMI 1640 medium containing 10% fetal bovine serum, the cells were passaged every 2-3 days.\n2) human nasopharyngeal cancer cell line KB, human colon carcinoma HCT-116, human prostatic cancer cell PC-3, human gastric cancer cell line GTL-16, human endometrial cancer cell HEC-1A, and human gastric cancer cell N87 were plated at 1×10^3 cells per well (96-well plate) and incubated for 8-12 h at 37° C., 5% CO2.\nas §2, §3, §4"}, "Transplanted H460 tumor": {"test_system": "Transplanted H460 tumor", "test": "Inhibitory assay of conjugate LDC13B against xenograf tumors", "type": "in vivo, nude mice", "details": "for Body weight of mice / Tumor size: H460 tumor", "experimental": "as §5\n1) human large cell lung cancer cell H460 were incubated at 37° C., 5% CO2 in IMDM medium containing 10% fetal bovine serum, the cells were passaged every 2-3 days.\n2) generation of tumors: 7×10^6 tumor cells were injected subcutaneously into the back of nude mice, and the mice were grouped for treatment after the tumor sizes were as large as about 200 mm^3.\n3) treatment: 3 mice/group, treated with LDC13B as well as controls MMAE and PBS with doses of 2.5 and 5 mg/kg every 3 days, four injections.\nas §6"}, "[3]": {"details": "2.5 mg/kg, 3 days after Injection 1"}, "[4]": {"details": "2.5 mg/kg, 3 days after Injection 2"}, "[5]": {"details": "2.5 mg/kg, 3 days after Injection 3"}, "[6]": {"details": "2.5 mg/kg, 3 days after Injection 4"}, "[7]": {"details": "2.5 mg/kg, 4 days after Injection 5"}, "[8]": {"details": "2.5 mg/kg, 5 days after Injection 6"}, "[9]": {"details": "2.5 mg/kg, 6 days after Injection 7"}, "[10]": {"details": "5 mg/kg, 3 days after Injection 1"}, "[11]": {"details": "5 mg/kg, 3 days after Injection 2"}, "[12]": {"details": "5 mg/kg, 3 days after Injection 3"}, "[13]": {"details": "5 mg/kg, 3 days after Injection 4"}, "[14]": {"details": "5 mg/kg, 4 days after Injection 5"}, "[15]": {"details": "5 mg/kg, 5 days after Injection 6"}}}
{"smiles": "CC[C@H](C)[C@@H]([C@@H](CC(=O)N1CCC[C@H]1[C@H](OC)[C@@H](C)C(=O)N[C@H](C)[C@@H](O)c1ccccc1)OC)N(C)C(=O)[C@@H](NC(=O)[C@H](C(C)C)N(C)C(=O)OCc1ccc(NC(=O)[C@H](CCCNC(N)=O)NC(=O)[C@@H](NC(=O)CCCCCN2C(=O)CC(SC[C@H](NC(=O)[C@H](CCCNC(=N)N)NC(=O)[C@H](CCCNC(=N)N)NC(=O)[C@H](CCCNC(=N)N)NC(=O)[C@H](CCCNC(=N)N)NC(=O)[C@H](CCCNC(=N)N)NC(=O)[C@H](CCCNC(=N)N)NC(=O)[C@H](CCCNC(=N)N)NC(=O)[C@H](CCCNC(=N)N)NC(=O)[C@@H](N)CCCNC(=N)N)C(=O)NCCCC[C@H](NC(=O)[C@H](Cc3ccc(O)cc3)NC(=O)[C@H](CO)NC(=O)[C@H](Cc3c[nH]c4ccccc34)NC(=O)[C@H](Cc3c[nH]cn3)NC(=O)[C@@H]3CCC(=O)N3)C(=O)N[C@@H](CC(C)C)C(=O)N[C@@H](CCCNC(=N)N)C(=O)N3CCC[C@H]3C(=O)NCC(N)=O)C2=O)C(C)C)cc1)C(C)C", "note": "(some centres unmarked) [LDC1013]", "values": [{"measurement": "less toxic for A375 than for H460 and KB, respectively", "setting": "melanoma cell line A375", "result": "10-100 fold"}, {"measurement": "tumor response (in words)", "setting": "[1]; HCC1954, 7 doses at 2.5 mg/kg and 7 doses of 5 mg/kg injected every three days", "result": "completely eliminate"}, {"measurement": "Body weight of mice", "setting": "[1]; [3]", "result": 24.46, "unit": "g"}, {"measurement": "Tumor size", "setting": "[1]; [3]", "result": 198, "unit": "mm^3"}, {"measurement": "Body weight of mice", "setting": "[1]; [4]", "result": 24.54, "unit": "g"}, {"measurement": "Tumor size", "setting": "[1]; [4]", "result": 198, "unit": "mm^3"}, {"measurement": "Body weight of mice", "setting": "[1]; [5]", "result": 23.94, "unit": "g"}, {"measurement": "Tumor size", "setting": "[1]; [5]", "result": 180, "unit": "mm^3"}, {"measurement": "Body weight of mice", "setting": "[1]; [6]", "result": 24.3, "unit": "g"}, {"measurement": "Tumor size", "setting": "[1]; [6]", "result": 113, "unit": "mm^3"}, {"measurement": "Body weight of mice", "setting": "[1]; [7]", "result": 24.98, "unit": "g"}, {"measurement": "Tumor size", "setting": "[1]; [7]", "result": 64, "unit": "mm^3"}, {"measurement": "Body weight of mice", "setting": "[1]; [8]", "result": 24.73, "unit": "g"}, {"measurement": "Tumor size", "setting": "[1]; [8]", "result": 22, "unit": "mm^3"}, {"measurement": "Body weight of mice", "setting": "[1]; [9]", "result": 24.43, "unit": "g"}, {"measurement": "Tumor size", "setting": "[1]; [9]", "result": 0, "unit": "mm^3"}, {"measurement": "Body weight of mice", "setting": "[1]; 2.5 mg/kg, Before Injection", "result": 24.14, "unit": "g"}, {"measurement": "Tumor size", "setting": "[1]; 2.5 mg/kg, Before Injection", "result": 180, "unit": "mm^3"}, {"measurement": "Body weight of mice", "setting": "[1]; [10]", "result": 20.7, "unit": "g"}, {"measurement": "Tumor size", "setting": "[1]; [10]", "result": 405, "unit": "mm^3"}, {"measurement": "Body weight of mice", "setting": "[1]; [11]", "result": 20.43, "unit": "g"}, {"measurement": "Tumor size", "setting": "[1]; [11]", "result": 405, "unit": "mm^3"}, {"measurement": "Body weight of mice", "setting": "[1]; [12]", "result": 21.31, "unit": "g"}, {"measurement": "Tumor size", "setting": "[1]; [12]", "result": 288, "unit": "mm^3"}, {"measurement": "Body weight of mice", "setting": "[1]; [13]", "result": 21.15, "unit": "g"}, {"measurement": "Tumor size", "setting": "[1]; [13]", "result": 88, "unit": "mm^3"}, {"measurement": "Body weight of mice", "setting": "[1]; [14]", "result": 21.21, "unit": "g"}, {"measurement": "Tumor size", "setting": "[1]; [14]", "result": 40, "unit": "mm^3"}, {"measurement": "Body weight of mice", "setting": "[1]; [15]", "result": 20.49, "unit": "g"}, {"measurement": "Tumor size", "setting": "[1]; [15]", "result": 0, "unit": "mm^3"}, {"measurement": "Body weight of mice", "setting": "[1]; 5 mg/kg, 6 days after Injection 7", "result": 24.49, "unit": "g"}, {"measurement": "Body weight of mice", "setting": "[1]; 5 mg/kg, Before Injection", "result": 21.92, "unit": "g"}, {"measurement": "Tumor size", "setting": "[1]; 5 mg/kg, Before Injection", "result": 320, "unit": "mm^3"}]}
{"smiles": "CC[C@H](C)[C@@H]([C@@H](CC(=O)N1CCC[C@H]1[C@H](OC)[C@@H](C)C(=O)N[C@H](C)[C@@H](O)c1ccccc1)OC)N(C)C(=O)[C@@H](NC(=O)[C@H](C(C)C)N(C)C(=O)OCc1ccc(NC(=O)[C@H](CCCNC(N)=O)NC(=O)[C@@H](NC(=O)CCCCCN2C(=O)CC(SC[C@H](NC(=O)CC[C@H](NC(=O)c3ccc(NCc4cnc5[nH]c(N)nc(=O)c5n4)cc3)C(=O)O)C(=O)NCCCC[C@@H](NC(=O)[C@H](Cc3ccc(O)cc3)NC(=O)[C@H](CO)NC(=O)[C@H](Cc3c[nH]c4ccccc34)NC(=O)[C@H](Cc3c[nH]cn3)NC(=O)[C@@H]3CCC(=O)N3)C(=O)N[C@@H](CC(C)C)C(=O)N[C@@H](CCCNC(=N)N)C(=O)N3CCC[C@H]3C(=O)NCC(N)=O)C2=O)C(C)C)cc1)C(C)C", "note": "(some centres unmarked) [LDC13B]", "values": [{"measurement": "more potent than either of the single-ligand drug conjugates LDC1 and LDC13A", "setting": "[2]", "result": "2-10 fold"}, {"measurement": "tumor response (in words)", "setting": "Transplanted H460 tumor; H460, 2.5 mg/kg dose", "result": "shrank rapidly"}, {"measurement": "tumor response (in words)", "setting": "Transplanted H460 tumor; H460, after four injections at 5 mg/kg", "result": "completely disappeared"}, {"measurement": "Body weight of mice", "setting": "Transplanted H460 tumor; [3]", "result": 22.73, "unit": "g"}, {"measurement": "Tumor size", "setting": "Transplanted H460 tumor; [3]", "result": 384, "unit": "mm^3"}, {"measurement": "Body weight of mice", "setting": "Transplanted H460 tumor; [4]", "result": 22.65, "unit": "g"}, {"measurement": "Tumor size", "setting": "Transplanted H460 tumor; [4]", "result": 384, "unit": "mm^3"}, {"measurement": "Body weight of mice", "setting": "Transplanted H460 tumor; [5]", "result": 22.47, "unit": "g"}, {"measurement": "Tumor size", "setting": "Transplanted H460 tumor; [5]", "result": 144, "unit": "mm^3"}, {"measurement": "Body weight of mice", "setting": "Transplanted H460 tumor; [6]", "result": 21.76, "unit": "g"}, {"measurement": "Tumor size", "setting": "Transplanted H460 tumor; [6]", "result": 144, "unit": "mm^3"}, {"measurement": "Body weight of mice", "setting": "Transplanted H460 tumor; 2.5 mg/kg, Before Injection", "result": 22.7, "unit": "g"}, {"measurement": "Tumor size", "setting": "Transplanted H460 tumor; 2.5 mg/kg, Before Injection", "result": 294, "unit": "mm^3"}, {"measurement": "Body weight of mice", "setting": "Transplanted H460 tumor; [10]", "result": 18.36, "unit": "g"}, {"measurement": "Tumor size", "setting": "Transplanted H460 tumor; [10]", "result": 144, "unit": "mm^3"}, {"measurement": "Body weight of mice", "setting": "Transplanted H460 tumor; [11]", "result": 19.65, "unit": "g"}, {"measurement": "Tumor size", "setting": "Transplanted H460 tumor; [11]", "result": 40, "unit": "mm^3"}, {"measurement": "Body weight of mice", "setting": "Transplanted H460 tumor; [12]", "result": 18.21, "unit": "g"}, {"measurement": "Tumor size", "setting": "Transplanted H460 tumor; [12]", "result": 18, "unit": "mm^3"}, {"measurement": "Body weight of mice", "setting": "Transplanted H460 tumor; [13]", "result": 18.22, "unit": "g"}, {"measurement": "Tumor size", "setting": "Transplanted H460 tumor; [13]", "result": 13.5, "unit": "mm^3"}, {"measurement": "Body weight of mice", "setting": "Transplanted H460 tumor; 5 mg/kg, Before Injection", "result": 20.95, "unit": "g"}, {"measurement": "Tumor size", "setting": "Transplanted H460 tumor; 5 mg/kg, Before Injection", "result": 196, "unit": "mm^3"}]}
